Results as given in patent publication US9834541B2, “2-aminopyridine compounds” (Merck Patent GmbH, priority 2012, dated 2017).

Columns and labels:
[1] = CLint (intrinsic clearance) assay, liver microsomal incubation; type: in vitro ADME, human; details: for microsomal CLint at 0.8 μM: liver microsomes, pH 7.4, human hepatic microsomes, 0.5 mg/mL protein, class symbols
Outline: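 Human liver microsomes (0.5 mg/mL protein) in 0.1 M potassium phosphate pH 7.4 with 1 mM MgCl2 were incubated at 37 °C with NADPH and compound (diluted to 0.8 μM), with no-cofactor controls. Samples were acetonitrile-quenched at 0–30 min. CLint (μL/min/mg protein) = k·1000/protein concentration, from the LC-MS/MS peak-area decline slope.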

Wnt pathway [2] = assay: Cellular assay for Wnt pathway activity, LS174T-shl-fLuc clone 5 (LS174T-L5) luciferase reporter assay; type: cell-based; details: Homo sapiens; LS174T TCF luciferase reporter cells, 24 hours incubation
Outline: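 LS174T human colon cancer cells stably carrying a 16×TCF/LEF-driven short-half-life firefly luciferase reporter were treated with compounds at 30 μM to 1 nM for 24 hours. Luciferase luminescence normalized to vehicle control; IC50 from curve fitting.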

Wnt pathway [3] = details: see Table A on page 93 of WO 2010/041054; cited from earlier work

## CN1c2ccc(-c3cnc(N)c(Cl)c3N3CC[C@@H](C#N)[C@H](O)C3)cc2CS1(=O)=O [Compound 66, (3S,4S)-2′-Amino-3′-chloro-3-hydroxy-5′-(1-methyl-2,2-dioxo-2,3-dihydro-1H-2I6-benzo[c]isothiazol-5-yl)-3,4,5,6-tetrahydro-2H-[1,4′] bipyridinyl-4-carbonitrile]
[1]
  microsomal CLint at 0.8 μM: 10 to 50 µL/min/mg
Wnt pathway [2]
  IC50: 0.403 µM

## CC(C)(O)Cn1cc(-c2ccc(-c3cnc(N)c(Cl)c3N3CCC4(CCNC4=O)CC3)cc2)cn1 [Compound 67, 8-(2-Amino-3-chloro-5-{4-[1-(2-hydroxy-2-methyl-propyl)-1H-pyrazol-4-yl]-phenyl}-pyridin-4-yl)-2,8-diaza-spiro[4.5] decan-1-one]
[1]
  microsomal CLint at 0.8 μM: 10 to 50 µL/min/mg
Wnt pathway [2]
  IC50: 0.049 µM

## CCN1Cc2cc(-c3cnc(N)c(Cl)c3N3CCC4(CCNC4=O)CC3)ccc2S1(=O)=O [Compound 68, 8-[2-Amino-3-chloro-5-(2-ethyl-1,1-dioxo-2,3-dihydro-1H-1l6-benzo[d]isothiazol-5-yl)-pyridin-4-yl]-2,8-diaza-spiro[4.5]decan-1-one]
[1]
  microsomal CLint at 0.8 μM: < 10 µL/min/mg
Wnt pathway [2]
  IC50: 0.059 µM

## CC(C)n1cc(-c2ccc(-c3cnc(N)c(Cl)c3N3CCC4(CCNC4=O)CC3)cc2)cn1 [Compound 69, 8-{2-Amino-3-chloro-5-[4-(1-isopropyl-1H-pyrazol-4-yl)-phenyl]-pyridin-4-yl}-2,8-diaza-spiro[4.5] decan-1-one]
[1]
  microsomal CLint at 0.8 μM: 50 to 100 µL/min/mg
Wnt pathway [2]
  IC50: 0.052 µM

## CCn1cc(-c2ccc(-c3cnc(N)c(Cl)c3N3CCC4(CCNC4=O)CC3)cc2)cn1 [Compound 70, 8-{2-Amino-3-chloro-5-[4-(1-ethyl-1H-pyrazol-4-yl)-phenyl]-pyridin-4-yl}-2,8-diaza-spiro[4.5] decan-1-one]
[1]
  microsomal CLint at 0.8 μM: ≥ 150 µL/min/mg
Wnt pathway [2]
  IC50: 0.023 µM

## CCn1ncc2ccc(-c3cnc(N)c(Cl)c3N3CCC4(CCNC4=O)CC3)cc21 [Compound 71, 8-[2-Amino-3-chloro-5-(1-ethyl-1H-indazol-6-yl)-pyridin-4-yl]-2,8-diaza-spiro[4.5] decan-1-one]
[1]
  microsomal CLint at 0.8 μM: 10 to 50 µL/min/mg
Wnt pathway [2]
  IC50: 0.181 µM

## CCn1ncc2cc(-c3cnc(N)c(Cl)c3N3CCC4(CCNC4=O)CC3)ccc21 [Compound 72, 8-[2-Amino-3-chloro-5-(1-ethyl-1H-indazol-5-yl)-pyridin-4-yl]-2,8-diaza-spiro[4.5] decan-1-one]
[1]
  microsomal CLint at 0.8 μM: 100 to 150 µL/min/mg
Wnt pathway [2]
  IC50: 0.155 µM

## CC(C)n1ncc2ccc(-c3cnc(N)c(Cl)c3N3CCC4(CCNC4=O)CC3)cc21 [Compound 73, 8-[2-Amino-3-chloro-5-(1-isopropyl-1H-indazol-6-yl)-pyridin-4-yl]-2,8-diaza-spiro[4.5] decan-1-one]
[1]
  microsomal CLint at 0.8 μM: 100 to 150 µL/min/mg
Wnt pathway [2]
  IC50: 0.054 µM

## O=C1NCCC12CCN(c1c(Cl)cncc1-c1ccccc1)CC2 [Compound E60, 8-(3-Chloro-5-phenyl-pyridin-4-yl)-2,8-diaza-spiro[4.5]decan-1-one, reference compound]
[1]
  microsomal CLint at 0.8 μM: ≥ 150 µL/min/mg
[1]; statement in the related-art section
  human hepatic microsomal intrinsic clearance (CLint), in words: high
Wnt pathway [3]
  inhibitory activity, in words: promising
Wnt pathway [2]
  IC50: 0.23 µM
